Laboratory results from patent US8673870B2 (priority 2002, dated 2014).
Several values for one entry are separate records, joined by “and”; a condition that tells them apart may be missing. Equal entries are not always repeated.

What was measured:
[1] = tested on: APL cells; parameters: species or system mice; conditions: mouse, in vivo
[2] = tested on: spleen cells stimulated with irradiated APL cells; experiment: Cytokine release assay (Th1/Th2 cytometric bead array); type: cell-based, mice
Protocol: Long term survivors (post day 300 illustrated in FIG. 2B) were sacrificed and tested for proliferation and cytokine release. Briefly, 5×10^5 responders (spleen cells from FVB/N injected with APL cells and treated with ATRA+PML-RARα-FrC or ScFvBCL1-FrC) were plated in each well with 200 μl of media consisting of RPMI 1640, 10% FCS and 0.5% […]. Spleen cells from healthy mice treated with ATRA. Stimulators (spleen cells from FVB/N, APL or BALB/c) were irradiated with 25 Gy and 1×10^6 cells were added to each well. After 24, 48 and 72 hours of incubation cells were assayed for ^3H-thymidine incorporation and supernatants were harvested for cytokine release assays. Cultures were set up in duplicate.
Cytokine release was measured using a mouse Th1/Th2 cytokine cytometric bead array kit according to the manufacturer's protocols (Becton, Dickinson, Pharmingen, San Jose, Calif.). This kit measures cytokines IL-2, IL-4, IL-5, IFN-γ and TNF-α. Long-term survivors of the mice from the protocol illustrated in FIG. 8, were sacrificed and spleen cells were cultured as described above. Briefly, 50 μl of supernatant was incubated with 50 μl of the mixed capture beads and 50 μl of the mouse Th1/Th2 PE detection reagent for 2 hours and analyzed on a FACSCalibur cytometer. Analysis was undertaken using the BD CBA (Becton Dickinson, Pharmingen) and Cell Quest software.

[3] = tested on: fragment C; conditions: in vivo
[4] = tested on: Recombinant human RARα protein (rhRARα); parameters: species or system mice; conditions: in vivo

Which results are given for “ScFvBCL1-FrC: ScFv construct of King et al 1998 from a lymphoma patient fused in frame to BCL1 leader and fragment C (SEQ ID NO:11)”?
Lifespan, in words [1]: extended lifespan; TNFα ([2]; with ATRA, approximately one year from injection of APL cells): increases in TNFα

Which results are given for `CC1=C(/C=C/C(C)=C/C=C/C(C)=C/C(=O)O)C(C)(C)CCC1` [ATRA, all-trans retinoic acid]?
Antibody response to fragment C (mice responding/mice tested) [3]: no antibodies to fragment C was detected; Antibodies against RARα detected by ELISA, in words [4]: Significant levels of antibodies against RARα were detected; RARα Ab positive (%) [4]: 7/12 (58%) and 4/5 (80%); RARα Ab positive: mice with detectable antibodies/mice alive [4]: 0/12 and 7/12 (58%) and 4/5 (80%); Survival versus comparison arms (Kaplan Meier), in words [1]: all of the mice relapse and die; Survival: No. mice/total [1]: 24/24 (100%) and 5/24 (21%) and 0/24 (0%); Time to relapse and death post transplant ([1]; sc): 6-12 weeks; IFN-γ release ([2]; 48 hours of culture, irradiated APL cells as stimulators, ATRA alone = spleen cells from healthy mice): 52 pg/mL
